In brackets after ≈: the same amount, converted by molar mass. Counter-ions that a name gives are not always drawn. Like-named read-outs stand apart in the source and are kept apart here. One block for each compound: values may come before it.
Tests used:
[1] = Solubility by absorbance of saturated solutions at 262 nm; format: physicochemical
Prozyme 6 = assay: Homogeneous aqueous enzymatic resolution (ester hydrolysis) with enzyme F; format: biochemical, Aspergillus oryzae; details: for % CONVERSION / % e.e.: 10 mmol ester in 100 ml 0.2 M buffer pH 7.0, 100 mg Prozyme 6 (F), 25 °C, 18 hours; for % e.e.: acid product, R
Protease XXIII = assay: Homogeneous aqueous enzymatic resolution (ester hydrolysis) with enzyme A; format: biochemical, Aspergillus oryzae; details: for enantiomeric excess: pH 7.5, 100 mg Protease XXIII (A)
Experimental: The enzymes used in Examples 6.2.1.1-6.2.1.17, 6.2.1.20-6.2.1.21, 6.2.1.23-6.2.1.28, 6.2.2.7, and 6.2.3.1-6.2.3.5 that follow were all proteases commercially available from Sigma Chemical Co., St. Louis, MO. […] For examples 6.2.2.5-6.2.2.6, Candida lipase obtained from Genzyme Corporation was used.
No further purification was performed.
The aqueous layer was retained.

Protease XVI = assay: Homogeneous aqueous enzymatic resolution (ester hydrolysis) with enzyme C; format: biochemical, Bacillus subtilis; details: 10.0 mmol ester in 100 ml 0.2 M phosphate buffer pH 7.0, 100 mg enzyme C, 20-22 °C, 20 hours; for % e.e.: acid product, R
Description: (§1) The enzymes used in Examples 6.2.1.1-6.2.1.17, 6.2.1.20-6.2.1.21, 6.2.1.23-6.2.1.28, 6.2.2.7, and 6.2.3.1-6.2.3.5 that follow were all proteases commercially available from Sigma Chemical Co., St. Louis, MO. These proteases are listed in each example using the Sigma numbering system, which is summarized below: • Protease VIII: "Subtilopeptidase A", product P-5380 (also known as subtilisin Carlsberg) • Protease XIV: from Streptomyces griseus, product P-5147 • Protease XVI: from Bacillus subtilis, product P-8775 • Protease XXIII: from Aspergillus oryzae, product P-4032 • Protease XXVII: "Nagarse", product P-4789 • Protease XXIV: bacterial protease, product P-8038 An additional protease enzyme, which was designated Prozyme 6, was obtained from the Amano Enzyme Corporation and used in Examples 6.2.1.18-6.2.19, 6.2.1.22, 6.2.1.29-6.2.1.30 and 6.2.2.1-6.2.2.4 described below. A pig liver esterase was used in Example 6.21.11; this enzyme, obtained from Sigma Chemical Company, was designated as their product E-3128. For examples 6.2.2.5-6.2.2.6, Candida lipase obtained from Genzyme Corporation was used. Finally, Candida lipase, product L-1754, obtained from Sigma Chemical Co. was used in Example 6.2.2.7.

[2] = test system: Candida lipase (Sigma L 1754); assay: Asymmetric hydrolysis in a multiphase membrane bioreactor with enzyme H; details: for rate of ester hydrolysis: pH 7.0
Experimental: The enzyme solution was recirculated from the shell side to the lumen side and back to the solution reservoir in an ultra-filtration mode. […] The procedure was completed in one hour.
After loading the enzyme to the reactor, recirculation of 210 gm. […] The recirculation rate was 400 ml/min and the average pressure on the shell compartment was kept at 45,5 KPa (6.5 psi) by adjusting a throttling valve at the shell side exit. On the lumen side 1 liter of 0.05 M K2 PO4 was recirculated at a rate of 400 ml/min. The pH of the aqueous reservoir was kept at 7.0 by addition of 1 M NaOH. The reactor was run continuously for 6.8 days.
The reaction progress and rate were monitored by following the caustic consumption.

[3] = molecular target: T1, Protease VIII: "Subtilopeptidase A" (Bacillus licheniformis, UniProt P00780); assay: Homogeneous aqueous enzymatic resolution (ester hydrolysis) with enzyme B; format: biochemical; details: for % e.e.: acid product
T1 sequence (P00780 106-379): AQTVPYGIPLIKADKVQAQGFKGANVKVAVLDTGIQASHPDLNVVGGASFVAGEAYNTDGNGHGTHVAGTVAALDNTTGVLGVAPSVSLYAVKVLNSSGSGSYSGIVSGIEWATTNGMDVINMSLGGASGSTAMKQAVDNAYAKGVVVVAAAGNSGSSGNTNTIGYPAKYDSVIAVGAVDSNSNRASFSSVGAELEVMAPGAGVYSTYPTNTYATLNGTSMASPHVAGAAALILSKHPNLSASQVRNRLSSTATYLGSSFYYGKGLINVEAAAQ

[4] = test system: Candida lipase (Genzyme Corporation); assay: Asymmetric hydrolysis in a multiphase membrane bioreactor with enzyme G; format: biochemical, Candida cylindracea; details: neat liquid ester, pH 7.7
Description: The module was then drained.
This material was recrystallized from hexane.

[5] = molecular target: T2, Protease XXVII: "Nagarse" (Bacillus amyloliquefaciens, UniProt P00782); assay: Homogeneous aqueous enzymatic resolution (ester hydrolysis) with enzyme D; format: biochemical; details: 0.010 mol ester in 100 ml 0.2 M sodium phosphate buffer pH 7.8, 150 mg enzyme D
T2 sequence (P00782 108-382): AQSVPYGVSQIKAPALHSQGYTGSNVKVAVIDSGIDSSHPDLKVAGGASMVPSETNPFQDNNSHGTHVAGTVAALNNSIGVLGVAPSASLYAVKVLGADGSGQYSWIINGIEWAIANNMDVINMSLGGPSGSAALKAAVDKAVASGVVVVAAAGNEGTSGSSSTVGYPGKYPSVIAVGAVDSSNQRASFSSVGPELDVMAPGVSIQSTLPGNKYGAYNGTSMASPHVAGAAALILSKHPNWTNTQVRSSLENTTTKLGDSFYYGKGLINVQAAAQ
Description: as §1

[6] = aqueous buffer, saturated solutions, pH 7 (50 mM phosphate buffer), room temperature, read-out: Solubility
[7] = 10.0 mmol ester in 100 ml 0.2 M phosphate buffer pH 7.0, 100 mg enzyme A, 20-22 °C, 20 hours
[8] = acid product, R, 10.0 mmol ester in 100 ml 0.2 M phosphate buffer pH 7.0, 100 mg enzyme A, 20-22 °C, 20 hours
[9] = water, as stated in the text of the examples, read-out: water solubility

solubility [1, 6]: 10 mM (≈ 2770 µg/mL)
Compound: CC(C)Cc1ccc(C(C)C(=O)OCCN(C)C)cc1 (stereo not drawn) [2-(N,N-dimethylamino)ethyl ester of ibuprofen]

Compound: COc1ccc2cc(C(C)C(=O)OCCC[N+](C)(C)C)ccc2c1 (racemic) [Compound 12, Methyl Sulfate Salt of 3-(N,N,N-Trimethylammonium) propyl Ester of 2-(6-Methoxy-2-naphthyl)propanoic Acid]
% CONVERSION (Prozyme 6): 34.0% | % e.e. (Prozyme 6): 21.6% | solubility [1, 6]: 1610 mM

solubility [1, 6]: 2180 mM | % CONVERSION (Protease XXIII; [7]): 30.1% | % e.e. (Protease XXIII; [8]): >99%
Compound: CC(C)Cc1ccc(C(C)C(=O)OCC[N+](C)(C)C)cc1 (racemic) [Compound 10, Iodide Salt of 2-(N,N,N-Trimethylammonium)ethyl Ester of 2-(4-Isobutylphenyl) propanoic Acid]

Compound: COc1ccc2cc(C(C)C(=O)OCC[N+](C)(C)C)ccc2c1 (racemic) [Compound 11, Methyl Sulfate Salt of 2-(N,N,N-Trimethylammonium) ethyl Ester of 2-(6-Methoxy-2-naphthyl)propanoic Acid]
% CONVERSION (Prozyme 6): 24.3% | % e.e. (Prozyme 6): 34.0%

% CONVERSION (Protease XXIII; [7]): 22.3% | % e.e. (Protease XXIII; [8]): 93.3%
Compound: CC(C)Cc1ccc(C(C)C(=O)OCCS(=O)(=O)O)cc1 (racemic) [Compound 2, Sodium Salt of 2-Sulfoethyl Ester of 2-(4-Isobutylphenyl) propanoic Acid]

% CONVERSION (Protease XVI): 5.3% | % e.e. (Protease XVI): 75.6%
Compound: CC(C)Cc1ccc(C(C)C(=O)OCCOP(=O)(O)O)cc1 (racemic) [Compound 5, Disodium Salt of the Phosphoric Acid Ester of the 2-Hydroxyethyl Ester of 2-(4-Isobutylphenyl) propanoic Acid]

solubility [1, 6]: 1.2 mM (≈ 265 µg/mL) | solubility [1, 9]: ~1.2 mM (≈ 265 µg/mL)
Compound: CCCCCCCCOC(=O)C(C)Cl (racemic) [Compound 20, Octyl Ester of 2-Chloropropanoic Acid]
rate of ester hydrolysis ([2]; at the beginning of the experiment, 210 gm neat ester, 30 grams Candida lipase in membrane): 186 µmol/min | rate of ester hydrolysis ([2]; at the end of the experiment (6.8 days)): 25 µmol/min | initial ester hydrolyzed ([2]; when the experiment was terminated (6.8 days)): 41%

% CONVERSION (Protease XVI): 22.0% | % e.e. (Protease XVI): 61.7% | solubility [1, 6]: 1130 mM | % CONVERSION ([3]; 10.0 mmol ester in 100 ml 0.2 M phosphate buffer pH 7.0, 100 mg enzyme B, 20-22 °C, 20 hours): 20.0% | % e.e. ([3]; R, 10.0 mmol ester in 100 ml 0.2 M phosphate buffer pH 7.0, 100 mg enzyme B, 20-22 °C, 20 hours): 92.1% | % CONVERSION (Protease XXIII; [7]): 43.2% | % e.e. (Protease XXIII; [8]): 97.4%
Compound: CC(C)Cc1ccc(C(C)C(=O)OCCCCS(=O)(=O)O)cc1 (racemic) [Compound 4, Potassium Salt of 4-Sulfobutyl Ester of 2-(4-Isobutylphenyl) propanoic Acid]

conversion (enzymatic hydrolysis) (Protease XXIII; 2.0 gm ester in 400 ml 50 mM sodium phosphate buffer pH 7.5, 100 mg Protease XXIII (A), 25 degrees, 16 hours): 18% | enantiomeric excess (Protease XXIII; R isomer of naproxen, acid product, 16 hours): 61.2% | enantiomeric excess (Protease XXIII; S isomer of Naproxen from chemical hydrolysis (pH 12) of the unconverted ester, 16 hours): 45.5%
Compound: COc1ccc2cc(C(C)C(=O)OCS(=O)(=O)O)ccc2c1 (racemic) [Compound 9, Sodium Salt of Sulfomethyl Ester of 2-(6-Methoxy-2-naphthyl) propanoic Acid]

% CONVERSION ([3]; 10.0 mmol ester in 100 ml 0.2 M buffer pH 7.0, 100 mg enzyme B, 25 °C, 18 hours): 26% | % e.e. ([3]; S, 10.0 mmol ester in 100 ml 0.2 M buffer pH 7.0, 100 mg enzyme B, 25 °C, 18 hours): 10% | % CONVERSION (Protease XXIII; 10.0 mmol ester in 100 ml 0.2 M buffer pH 7.0, 100 mg enzyme A, 25 °C, 18 hours): 53% | % e.e. (Protease XXIII; acid product, S, 10.0 mmol ester in 100 ml 0.2 M buffer pH 7.0, 100 mg enzyme A, 25 °C, 18 hours): 3%
Compound: CC(CSC(=O)c1ccccc1)C(=O)OCS(=O)(=O)O (racemic) [Compound 16, Potassium Salt of the Sulfomethyl Ester of (±)-S-3-Benzoylthio-2-methylpropanoic Acid]

conversion as measured by titrimetry ([3]; 8.05 gm ester in 300 ml 0.1 M potassium phosphate buffer pH 7.0, 20 mg subtilisin protease (B), point at which the reaction was stopped): 25%
Compound: CC(Cl)C(=O)OCCCS(=O)(=O)O (racemic) [Compound 13, Potassium Salt of 3-Sulfopropyl Ester of 2-Chloropropanoic Acid]

Compound: CC(Oc1ccc(Cl)cc1)C(=O)OCS(=O)(=O)O (racemic) [Compound 17, Sodium Salt of the Sulfomethyl Ester of 2-(4-Chlorophenoxy) propanoic Acid]
completion of reaction (Prozyme 6; 10 mmol ester in 100 ml 0.2 M sodium phosphate buffer pH 7.0, 35 mg Enzyme F, 30 °C, 1 hour): 22.5%

solubility [1, 6]: 0.4 mM (≈ 115 µg/mL) | solubility [1, 9]: ~0.4 mM (≈ 115 µg/mL)
Compound: CC(C)Cc1ccc(C(C)C(=O)OCC(F)(F)F)cc1 (racemic) [Compound 19, 2,2,2-Trifluoroethyl Ester of 2-(4-Isobutylphenyl)propanoic Acid]
average hydrolytic rate ([4]; first 60 minutes, 3.0 grams Candida lipase in membrane): 160 amol/min | average hydrolysis rate ([4]; over the next 76 hours, by titrimetry): 21 µmol/min | conversion to acid ([4]; over the next 76 hours): about 9.8%

% CONVERSION (Protease XXIII; [7]): 24.3% | % e.e. (Protease XXIII; [8]): 96.5%
Compound: CC(C)Cc1ccc(C(C)C(=O)OCCCOS(=O)(=O)O)cc1 (racemic) [Compound 6, Potassium Salt of the Sulfuric Acid Ester of 3-Hydroxypropyl Ester of 2-(4-Isobutylphenyl) propanoic Acid]

% CONVERSION [5]: 32.0% | % e.e. ([5]; acid product, R): 91.0% | % CONVERSION ([3]; 0.010 mol ester in 100 ml 0.2 M sodium phosphate buffer pH 7.8, 150 mg enzyme B): 36.4% | % e.e. ([3]; R, 0.010 mol ester in 100 ml 0.2 M sodium phosphate buffer pH 7.8, 150 mg enzyme B): 98.6% | % CONVERSION (Protease XXIII; [7]): 50.0% | % CONVERSION (Protease XXIII; 0.010 mol ester in 100 ml 0.2 M sodium phosphate buffer pH 7.8, 150 mg enzyme A): 47.1% | conversion of the racemic ester to acid (Protease XXIII; about 1 M ester, 40 ml, 0.1 M potassium phosphate pH 7.0, 1.00 gm protease (A), 23.9 hours at room temperature, by hydroxide titration): 29% | % e.e. (Protease XXIII; [8]): 84.2% | % e.e. (Protease XXIII; acid product, R, 0.010 mol ester in 100 ml 0.2 M sodium phosphate buffer pH 7.8, 150 mg enzyme A): 97.7%
Compound: CC(C)Cc1ccc(C(C)C(=O)OCCCS(=O)(=O)O)cc1 (racemic) [Compound 3, Potassium Salt of 3-Sulfopropyl Ester of 2-(4-Isobutylphenyl) propanoic Acid]

Compound: COCCOC(=O)C(C)c1ccc(CC(C)C)cc1 (stereo not drawn) [Methoxyethyl ester of ibuprofen]
solubility [1, 6]: 0.18 mM (≈ 47.6 µg/mL)

Source: patent EP0423133B1, “ENZYMATIC RESOLUTION SYSTEMS AND COMPOUNDS USEFUL IN THE SYSTEMS AND THEIR REPARATIONS” (priority 1988, dated 1989)
